This experiment addresses recombinant eIF4E (Homo sapiens (Human), UniProt P06730). Nature of the experiment: Fluorescence polarization competition assay for eIF4E binding potency. Summed up:
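FP readout; IC50 fit from 8-point, 3-fold series. 75 nM eIF4E + 20 nM ATTO-550-labelled m7GDP probe, Tris pH 7.5/NaCl/DTT/Tween buffer, 1% DMSO final. 30 min RT equilibration, light-protected.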
A general note: In fluorescence polarisation assays a small probe gives low polarisation when free and higher when bound to something large.

[1] abbreviates: fluorescence polarization competition, 75 nM recombinant eIF4E, 20 nM EDA-m7GDP-ATTO-550, IC50 class, read-out: elF4E FP.
Where [2] appears, read: inhibition of eIF4E/EDA-m7GDP-ATTO-550 binding by 50%, Table 4B calculated values, read-out: IC50.
Where [3] appears, read: inhibition of eIF4E/EDA-m7GDP-ATTO-550 binding, calculated IC50 values, Table 4B, read-out: IC50.

For 47 molecules, IC50 results are on record in patent US11286268B1, “EIF4E-inhibiting compounds and methods” (EFFECTOR THERAPEUTICS, INC., priority 2019, dated 2022).

Where two headings read alike, the source gives them in different places. A value given as a limit tells only on which side of the number the result lay.

recombinant eIF4E, sequence (P06730 whole entry): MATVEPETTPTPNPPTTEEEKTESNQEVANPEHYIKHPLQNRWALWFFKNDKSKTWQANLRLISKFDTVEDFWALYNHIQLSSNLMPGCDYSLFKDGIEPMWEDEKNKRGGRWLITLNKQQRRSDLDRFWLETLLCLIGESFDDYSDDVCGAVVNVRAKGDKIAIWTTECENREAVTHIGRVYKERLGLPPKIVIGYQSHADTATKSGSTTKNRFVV

Turning to `N#Cc1cc2c(=O)n(CCOc3ccc(Cl)cc3-c3ccc(C(=O)O)s3)cnc2cn1` [compound 53], the IC50 is, setting by setting: under setting [1], 50 to 1000 nM; under setting [2], 931 nM. On to `Cc1nc2cnc(N(C)C3CCN(CC(F)(F)F)CC3)c(C#N)c2c(=O)n1CC#Cc1ccc(Cl)cc1-c1ccnc2c(C(=O)NS(=O)(=O)CC#N)csc12` [compound 1670], for which the IC50 under setting [3] was 5.68 nM. Consider `Cc1nc2cc(C(F)(F)F)c(CN(C)C)c(C#N)c2c(=O)n1CC#Cc1ccc(Cl)cc1-c1ccnc2c(C(=O)O)csc12` [compound 553], for which the IC50 by setting is: under setting [1], under 50 nM; under setting [2], 13.4 nM. As to `C#Cc1ccc(C#N)c2c(=O)n(CCOc3ccc(Cl)cc3-c3ccnc4c(C(=O)O)csc34)c(C)nc12` [compound 211], the IC50 reads like this: under setting [1], under 50 nM; under setting [2], 35.4 nM. Regarding `N#Cc1cc2c(=O)n(CCOc3ccc(Cl)cc3-c3cc(C(=O)O)c(F)cc3F)cnc2cn1` [compound 86], the IC50 is, setting by setting: under setting [1], over 1000 nM; under setting [2], 49700 nM.

In the case of `Cc1nc2cnc(N3CCN(CC(F)(F)Cl)CC3)c(C#N)c2c(=O)n1CCOc1ccc(Cl)cc1-c1ccnc2c(C(=O)O)csc12` [compound 1474], under setting [3], the IC50 was 13.8 nM. Consider `N#Cc1cc2c(=O)n(CCOc3ccc(Cl)cc3-c3ccc(F)c(C(=O)O)c3F)cnc2cn1` [compound 91], for which the IC50 is 50 to 1000 nM under setting [1] and 287 nM under setting [2].

Take `Cc1nc2cc(C(F)(F)F)c(-c3cccnc3)c(C#N)c2c(=O)n1CCOc1ccc(Cl)cc1-c1cccc(C(=O)O)c1` [compound 388]: the IC50 under setting [1] was under 50 nM and the IC50 under setting [2] is 6.29 nM. For the molecule `Cc1nc2cc(OC(F)F)c(C(F)F)c(C#N)c2c(=O)n1CCOc1ccc(Cl)cc1-c1ccnc2c(C(=O)O)csc12` [compound 539], the IC50 by setting is: under setting [1], under 50 nM; under setting [2], 47.2 nM. Regarding `Cc1cc(-c2cc(Cl)ccc2OCCn2c(C)nc3cc(Cl)c(Cl)c(C#N)c3c2=O)c2scc(C(=O)O)c2n1` [compound 582], the IC50 was under 50 nM under setting [1] and 12.7 nM under setting [2]. On to `Cc1cc(-c2cc(Cl)ccc2OCCn2c(C)nc3cc(Cl)c(NC4CC4)c(C#N)c3c2=O)c2scc(C(=O)O)c2n1` [compound 958], for which the IC50 reads like this: under setting [1], under 50 nM; under setting [2], 13.5 nM. With `Cc1nc2cnc(N(C)C3CCN(CC(F)(F)c4ccn(C)n4)CC3)c(C#N)c2c(=O)n1CC#Cc1ccc(Cl)cc1-c1ccnc2c(C(=O)O)csc12` [compound 1536], under setting [3], the IC50 is 18.3 nM. Turning to `N#Cc1cc2c(=O)n(C/C=C/c3ccc(Cl)cc3-c3cccc(C(=O)O)c3)cnc2cn1` [compound 41], the IC50 is over 1000 nM under setting [1] and 3440 nM under setting [2].

Regarding `Cc1cc(-c2cc(Cl)ccc2OCCn2c(C)nc3cnc([C@H]4C[C@@H](O)C4)c(C#N)c3c2=O)c2scc(C(=O)O)c2n1` [compound 1194], the IC50 was under 50 nM under setting [1] and 15.3 nM under setting [3]. With `Cc1nc2cc(C(F)(F)F)cc(C#N)c2c(=O)n1CCOc1ccc(Cl)cc1-c1coc2c(C(=O)O)cccc12` [compound 300], the IC50 by setting is: under setting [1], under 50 nM; under setting [2], 24.3 nM. For the molecule `Cc1nc2cnc(CCN(C)CC(F)F)c(C#N)c2c(=O)n1CC#Cc1ccc(Cl)cc1-c1ccnc2c(C(=O)O)csc12` [compound 1492], under setting [3], the IC50 is 20.1 nM. For the molecule `Cc1cc(-c2c(F)cc3nc(C)n(CCOc4ccc(Cl)cc4-c4cc(C)nc5c(C(=O)O)csc45)c(=O)c3c2C#N)cc(C)n1` [compound 932], the IC50 is under 50 nM under setting [1] and 17.8 nM under setting [2]. As to `C#Cc1c(C(=O)O)cccc1-c1cc(Cl)ccc1OCCn1cnc2cc(C(F)(F)F)cc(C#N)c2c1=O` [compound 159], the IC50 runs as follows: under setting [1], under 50 nM; under setting [2], 30.9 nM.

For the molecule `CCc1cc(-c2cc(Cl)ccc2OCCn2c(C)nc3cc(C(F)(F)F)c(N4CC5(C4)CN(C4CC4)C5)c(C#N)c3c2=O)c2scc(C(=O)NS(C)(=O)=O)c2n1` [compound 1932], the IC50 under setting [3] was 8.4 nM. With `Cc1nc2cc(CN(C)C)c(Cl)c(C#N)c2c(=O)n1CCOc1ccc(Cl)cc1-c1ccnc2c(C(=O)O)csc12` [compound 516], the IC50 runs as follows: under setting [1], under 50 nM; under setting [2], 34.4 nM. On the same counts, the results for `Cc1cc(-c2cc(Cl)ccc2OCCn2c(C)nc3c(F)cc(C(F)F)c(C#N)c3c2=O)c2scc(C(=O)NS(=O)(=O)C(F)(F)F)c2n1` [compound 593] are under 50 nM and 32.9 nM. As for `N#Cc1cc2c(=O)n(CCOc3ccc(O)cc3-c3cccc(C(=O)O)c3)cnc2cn1` [compound 125], the IC50 under setting [1] was over 1000 nM and the IC50 under setting [2] is over 3000 nM.

Take `Cc1nc2cc(C(F)(F)F)c(N3CCN(c4cccnc4)CC3)c(C#N)c2c(=O)n1CCOc1ccc(Cl)cc1-c1cccc(C(=O)O)c1` [compound 380]: the IC50 was under 50 nM under setting [1] and 29.7 nM under setting [2]. For the molecule `Cc1cc(-c2cc(N3CC(F)(F)C3)ccc2OCCn2c(C)nc3cc(C(F)(F)F)c(N4CC(F)(F)C4)c(C#N)c3c2=O)c2scc(C(=O)O)c2n1` [compound 2036], the IC50 under setting [3] is 38.4 nM.

For `Cc1cc(-c2cc(Cl)ccc2OCCn2c(C)nc3cc(Cl)c(N(C)C)c(C#N)c3c2=O)c2scc(C(=O)O)c2n1` [compound 696], the IC50 under setting [1] was under 50 nM and the IC50 under setting [2] was 8.94 nM. On to `Cc1cnc2c(C(=O)O)csc2c1-c1cc(Cl)ccc1OCCn1c(C)nc2cc(C(F)(F)F)cc(C#N)c2c1=O` [compound 495], for which the IC50 reads like this: under setting [1], 50 to 1000 nM; under setting [2], 237 nM.

Take `Cc1cc(-c2cc(Cl)ccc2OCCn2c(C)nc3cc(C(F)(F)F)c(CC(=O)N(C)C)c(C#N)c3c2=O)c2scc(C(=O)O)c2n1` [compound 909]: the IC50 under setting [1] is under 50 nM and the IC50 under setting [2] was 13.2 nM. Consider `CCOP(=O)(OCC)c1csc2c(-c3cc(Cl)ccc3OCCn3c(C)nc4cc(C(F)(F)F)c(N5CCN(C)CC5)c(C#N)c4c3=O)ccnc12` [compound 1612], for which the IC50 under setting [3] was 13.7 nM. Consider `Cc1nc2cnc(N3CCN(CC4(C(F)(F)F)CC4)CC3)c(C#N)c2c(=O)n1CCOc1ccc(Cl)cc1-c1ccnc2c(C(=O)O)csc12` [compound 1471], for which the IC50 under setting [3] was 14.2 nM. Consider `Cc1nc2cnc(N(C)C3CC4(C3)CN(C(C)(C)CF)C4)c(C#N)c2c(=O)n1CC#Cc1ccc(Cl)cc1-c1ccnc2c(C(=O)O)csc12` [compound 828], for which the IC50 under setting [1] is under 50 nM and the IC50 under setting [2] was 5.72 nM. Regarding `COc1ncc(C#N)c2c(=O)n(CCOc3ccc(Cl)cc3-c3ccc(C)c4c(C(=O)O)csc34)c(C)nc12` [compound 726], the IC50 is 50 to 1000 nM under setting [1] and 53 nM under setting [2]. Turning to `Cc1cc(-c2cc(Cl)ccc2OCCn2c(C)nc3cc(OC(F)F)cc(C#N)c3c2=O)c2scc(C(=O)NS(C)(=O)=O)c2n1` [compound 580], the IC50 under setting [1] is under 50 nM and the IC50 under setting [2] was 24.2 nM. As for `Cc1nc2cc(C(F)(F)F)c(N3CCN(CCF)CC3)c(C#N)c2c(=O)n1CCOc1ccc(Cl)cc1-c1ccnc2c(C(=O)O)csc12` [compound 655], the IC50 by setting is: under setting [1], under 50 nM; under setting [2], 13.5 nM. Regarding `Cc1cc(F)cc(-c2c(C(F)(F)F)cc3nc(C)n(CCOc4ccc(Cl)cc4-c4cc(C)nc5c(C(=O)O)csc45)c(=O)c3c2C#N)n1` [compound 684], the IC50 reads like this: under setting [1], under 50 nM; under setting [2], 15 nM. Consider `Cc1sc2c(-c3cc(Cl)ccc3OCCn3c(C)nc4cc(C(F)(F)F)c(N5CCN(C)CC5)c(C#N)c4c3=O)ccnc2c1C` [compound 1252], for which the IC50 under setting [3] was 222 nM. Same read-out and setting: the same measure for `COC(=O)c1csc2c(-c3cc(Cl)ccc3OCCn3c(C)nc4cc(C(F)(F)F)c(CN(C)C)c(C#N)c4c3=O)ccnc12` [compound 1907]: 405 nM.

On to `Cc1cc(-c2cc(Cl)ccc2OCCn2c(C)nc3c(C(F)(F)F)cc(Cl)nc3c2=O)c2scc(C(=O)O)c2n1` [compound 680], for which the IC50 is 50 to 1000 nM under setting [1] and 56.6 nM under setting [2]. With `COC(=O)c1sc2c(-c3cc(Cl)ccc3OCCn3c(C)nc4cc(C(F)(F)F)cc(C#N)c4c3=O)ccnc2c1O` [compound 2037], the IC50 under setting [3] is over 1000 nM. As for `Cc1cc(-c2cc(Cl)ccc2OCCn2c(C)nc3ccc(N(C)C)nc3c2=O)c2scc(C(=O)O)c2n1` [compound 679], the IC50 is 50 to 1000 nM under setting [1] and 160 nM under setting [2]. As to `CCOP(=O)(OCC)c1csc2c(-c3cc(Cl)ccc3OCCn3c(C)nc4cnc(N(C)C5CCN(CC(F)F)CC5)c(C#N)c4c3=O)ccnc12` [compound 1616], the IC50 under setting [3] was 11.5 nM. For `Cc1cc(-c2cc(Cl)ccc2OCCn2c(C)nc3cc(C(F)(F)F)c(CC4CN(C)C4)c(C#N)c3c2=O)c2scc(C(=O)O)c2n1` [compound 425], the IC50 reads like this: under setting [1], under 50 nM; under setting [2], 11.2 nM. On to `CSc1cc(C(=O)O)cc(-c2cc(Cl)ccc2OCCn2cnc3cnc(C#N)cc3c2=O)c1` [compound 95], for which the IC50 is over 1000 nM under setting [1] and 2860 nM under setting [2]. `Cc1nc2cnc(N(C)C3CCN(CC(=O)C(C)C)CC3)c(C#N)c2c(=O)n1CCOc1ccc(Cl)cc1-c1ccnc2c(C(=O)O)csc12` [compound 1127]: the IC50 was under 50 nM under setting [1] and 12.9 nM under setting [2]. `Cc1nc2cc(C(F)(F)F)cc(C#N)c2c(=O)n1CCOc1ccc(Cl)cc1-c1ccc(F)c2c(C(=O)O)csc12` [compound 2018]: under setting [3], the IC50 is 24.4 nM.

In the case of `Cc1cc(-c2cc(Cl)ccc2OCCn2c(C)nc3cnc(C4(C)CC4)c(C#N)c3c2=O)c2scc(C(=O)O)c2n1` [compound 831], the IC50 is under 50 nM under setting [1] and 12.3 nM under setting [2]. On to `Cc1cc(-c2cc(Cl)ccc2OCCn2c(C)nc3c(C4COC4)ncc(C#N)c3c2=O)c2scc(C(=O)O)c2n1` [compound 1419], for which, under setting [3], the IC50 was 6.76 nM. `Cc1nc2cnc(N(C)C3CCN([C@H]4C[C@H](OC(F)F)C4)CC3)c(C#N)c2c(=O)n1CC#Cc1ccc(Cl)cc1-c1ccnc2c(C(=O)NS(=O)(=O)c3ccncc3)csc12` [compound 1764]: under setting [3], the IC50 was 19 nM.
